Literature values in publication PMC10379611 (International Journal of Molecular Sciences, 2023).

Details: recommended clinical dose of Paxlovid; cited from earlier work

For `CC(C)c1nc(CN(C)C(=O)N[C@H](C(=O)N[C@@H](Cc2ccccc2)C[C@H](O)[C@H](Cc2ccccc2)NC(=O)OCc2cncs2)C(C)C)cs1` [Ritonavir], the observed plasma concentrations is listed as 0.5 µM.
